The subject of data set [1] is antioxidant enzymes (SOD, CAT, GPX, GR) in bAECs. The experiment in a line: Antioxidant enzyme (AOE) activities in cell lysates, all four enzymes together. The note with it: for AOE change, SERM alone: pretreatment with 1 μM alone. Type of data set: cell-based, bovine. The method, then:
[…] The cells were then lysed on ice by sonication at a setting of 50 mW, with 3×15 set cycles using a Cole-Parmer Ultrasonic Homogenizer (Chicago, Ill.). Protein concentrations in the samples were determined by the Bradford method with bovine serum albumin as a standard (Bradford, Anal. Biochem. 72:248-254, 1976).
SOD activity was determined by a method based on the ability of SOD to suppress epinephrine auto-oxidation (Misra and Fridovich, J.Biol. Chem. 247:3170-3175, 1972). One unit of SOD activity is defined as the amount of protein that inhibits the oxidation of epinephrine by 50%. Briefly, 100 μl of 10×-diluted cell homogenate (about 10 μg protein) was added to 900 μl of carbonate buffer (0.1 M NaHCO3, 0.1 M Na2CO3, 0.1 mM EDTA, pH 10.2) containing 0.7 mM of epinephrine. The absorbency of the mixture was measured for 4 minutes at 480 nm using a Hitachi U-2000 spectrophotometer (Hitachi, San Jose, Calif.).
CAT activity was determined by the method of Aebi (Methods Enzymol. 105:121,-126, 1984). One unit of CAT activity is defined as the amount of protein that degrades 1 μmole of H2O2 per minute. Initially, 10 μl of absolute ethanol was mixed with 100 μl of cell homogenates and pre-incubated at 4° C. for 30 minutes. Following the addition of 10 μl Triton X-100 (reduced form), a 100 μl aliquot (about 100 μg of protein) of the resultant mixture was next added to 500 μl of hydrogen peroxide (66 mM) and 400 μl of phosphate buffer (0.1 M NaH2PO4, 0.1 M Na2HPO4, 0.1 mM EDTA, pH 7.0). The absorbency of the mixture was monitored for one minute at 240 nm spectrophotometrically. The molar extinction coefficient of 43.6 M/cm was used to determine the catalase activity.
GPX activity was determined by a modified method of Flohe and Gunzler (Methods Enzymol. 105:114-121, 1984). One unit of GPX activity is defined as the amount of protein that oxidizes 1 nmole of β-NADPH per minute. In this assay, 100 μl of cell homogenate (about 100 μg protein) was added to 800 μl of phosphate buffer (0.1 M NaH2PO4, 0.1 M Na2HPO4, 0.1 mM EDTA, pH 7.0) containing 12.5 mM glutathione (reduced form, GSH), 0.2 mM β-nicotinamide adenine dinucleotide phosphate (reduced form, β-NADPH), and 0.34 U glutathione reductase. This mixture was pre-incubated at 37 C for 10 minutes and then 100 μl of 12 mM t-butyl hydroperoxide was added. The absorbency of the mixture was determined at 340 nm for 3 minutes. The molar extinction coefficient of 6.22 mM/cm was used to determine the activity of GPX.
GR activity was determined by a modified method of Carlberg and Mannervik (Methods Enzymol. 11 3:484-490, 1985). One unit of GR activity is defined as the amount of protein that oxidizes 1 nmole of β-NADPH per minute. Briefly, 50 μl of 2 mM β-NADPH in 10 mM Tris buffer (pH 7.0) was added to a cuvette containing 50 μl of 20 mM glutathione (oxidized ofrm, GSSG) in phosphate buffer (0.1 M NaH2PO4, 0.1 M Na2HPO4, 0.1 mM EDTA, pH 7.0) and 800 μl of phosphate buffer. Following the addition of cell homogenate (about 100 μg protein/100 μl) the final mixture was measured at 340 nm for 3 minutes. The molar extinction coefficient of 6.22 mM/cm was used to determine the activity of […].

Data set [2] deals with bovine aortic endothelial cells (bAECs). The settings on record: for protection against paraquat-mediated cytotoxicity, SERM alone: 10 nM-1 μM, 24 h pretreatment (FIG. 4). The procedure:
Primary cultures of bAECs were established from five female beef cattle (ranging in age from 1 to 2 years old) according to the method of Fenselau and Mello (Cancer Res. 36:3269-3273, 1976). Pooled cells were routinely maintained under humidified air (5% CO2) at 37° C. in Dulbecco's modified medium supplemented with 10% fetal bovine serum (FBS). Cells from the second to the fifth passages were used in these studies.
In the studies in which male and female bAECs were compared, batches of bAECs were independently established from 5 female and 4 male beef cattle (ranging in age from 1 to 2 years old) according to the method of Fenselau and Mello (Cancer Res. 36:3269-3273, 1976). Otherwise, the cells were treated and assessed as described in the paragraph above.
Prior to E2 pretreatment, cells were grown in phenol red-free DMEM supplemented with 10% dextran/charcoal-stripped FBS for at least 1 passage (3-4 days). Phenol red-free Dulbecco's modified medium was used to avoid potential estrogenic interference. Serum steroid deprivation was conducted according to the conditions described by Yeh et al. (Proc. Natl. Acad. Sci. USA 95:5527-5532, 1998). The E2 level in the stripped serum was assayed using an [^125I] 17β-estradiol radioimmunoassay kit (TKE21, Diagnostic Products Corporation, Los Angeles, Calif.). […] The cells grown in E2-free environments were plated onto Falcon 24-well Primariae™ plates at a density of 5×10^4 cells/well. E2 in dimethylsulfoxide (DMSO) was added to each well at final concentrations ranging from 1 nM to 10 μM 3 hours after plating, and the cells were then incubated for 24 hours (a duration commonly used for the studies of the genomic effects of E2) at 37° C. Control cells were treated with a corresponding amount of DMSO (a final concentration 0.05%).
Prior to oxidative challenge, E2-containing media was removed, and the cells were rinsed with PBS twice and re-fed with serum-free fresh medium. Subsequently, paraquat was added to the cells at the indicated doses (0.1-2.0 mM) for 3 hours. The oxidative challenge was terminated by aspiration of the oxidant-containing medium and quickly rinsing the cells twice with PBS. The cells were allowed to recover for 48 hours in medium supplemented with 10% regular FBS to exclude the possibility that different concentrations of E2 interfere with the cellular recovery processes.
Cell survival after oxidative challenge was assessed with a 3-(4,5-dimethylthiazol-2-yl) 2,5 diphenyltetrazolium bromide (MTT) assay in which the mitochondrial dehydrogenase activity of viable cells reduces MTT to a blue formazan product (Carmichael et al. Cancer Res. 47:936-942, 1987). Our prior conditions were employed (Si et al., Endocrine in press, 2001). Briefly, cells were treated with 1/10 volume of MTT solution (5 mg/ml in PBS) and incubated at 37° C. for 2 hours. The supernatant was then removed, and 600 μl of lysis buffer (50% dimethyl formamide, 5% sodium dodecyl sulphate, 0.35 M acetic acid, 50 mM HCl) was added to each well. Following cell lysis, the absorbency was measured at 570 nm and used as an indicator of relative cell survival. The surviving fraction was calculated as compared to the cells without paraquat challenge.
Two experimental groups were created. In the first group, E2 was added only during the 24-hour pretreatment period. In the second group, E2 was added only during the 3-hour paraquat exposure.

The test system of another data set is LDL. The note with it: 5-50 μM; oxidation by copper ions, monocytes, or endothelial cells; cited from earlier work.
Another data set deals with estrogen receptor. The settings on record: cited from earlier work.
The test system of data set [3] is endothelial nitric oxide synthase. The settings on record: endothelial cells; cited from earlier work.
The test system of another data set is cardiomyocytes. The note with it: cited from earlier work.

The text below walks through data of patent US20020164581A1 (priority 2001, published 2002).

Where two headings read alike, the source gives them in different places.

With 4-hydroxytamoxifen [4-OH-Tam], the “effect on E2's capability to evoke AOE activities” value in data set [1] (1 μM SERM included during 1 nM E2 pretreatment (FIG. 6)) was “significantly decreased estrogen's capability to evoke AOE activities”. Besides, the “AOE change, SERM alone” value in data set [1] was “no detectable change in AOE”. For the same molecule, in data set [2], the “protection against subsequent oxidative challenge” value was “neither positively nor negatively influenced oxidative resistance” and the “protection against paraquat-mediated cytotoxicity, SERM alone” value was “failed to confer detectable protection”. Further, the “effect on E2-induced oxidative protection” value in data set [2] (10 nM-1 μM added simultaneously with 1 nM E2 during pretreatment) is “significantly blocked estrogen-induced oxidative protection”. Further, the “minimal dose to suppress E2 protection” value in data set [2] (co-treatment with 1 nM E2, endothelial cells) is 10 nM.

Consider `C[n+]1ccc(-c2cc[n+](C)cc2)cc1.[Cl-].[Cl-]` [paraquat, 1,1′-dimethyl-4,4′-bipyridinium dichloride], for which, in data set [2] (exposure of bAECs 3 h at 37 C), the “cell killing by paraquat” value was “dose-dependent cell killing”. The same molecule had an LD50 of paraquat in data set [2] (male and female bAECs (both genders)) of 0.1 to 1.0 mM. For the same molecule, in data set [2] (untreated control cells (no E2)), the “LD50 of paraquat toxicity” value was “about 0.5 mM”.

In the case of `O=C(c1ccc(OCCN2CCCCC2)cc1)c1c(-c2ccc(O)cc2)sc2cc(O)ccc12` [Ral, raloxifene], the “AOE change, SERM alone” value in data set [1] is reported as “no detectable change in AOE”. In data set [2], the “protection against subsequent oxidative challenge” value was “neither positively nor negatively influenced oxidative resistance” and the “protection against paraquat-mediated cytotoxicity, SERM alone” value is “failed to confer detectable protection”. Also, in data set [2] (1 μM (highest tested dose) added with 1 nM E2 during pretreatment), the “effect on E2-induced oxidative protection” value is listed as “only a slight inhibitory effect on E2 protection”. Also, in data set [2] (1-100 nM added with 1 nM E2 during pretreatment), the “effect on E2-induced oxidative protection” value is on record as “did not affect E2-induced oxidative protection”.

Turning to `C[C@]12CC[C@H]3[C@@H](CCC4=CC(=O)CC[C@@]43C)[C@@H]1CC[C@@H]2O` [testosterone], the “effect on LDL oxidation” value in the data set on LDL is listed as “has no effect”.

Turning to `CCCCN(C)C(=O)CCCCCCCCCC[C@@H]1Cc2cc(O)ccc2[C@H]2CC[C@]3(C)[C@@H](O)CC[C@H]3[C@H]12` [ICI164384], in the data set on estrogen receptor, the “effect on the beneficial effect of E2” value was “reverses the beneficial effect of E2”.

On to `C[C@]12CC[C@@H]3c4ccc(O)cc4CC[C@H]3[C@@H]1C[C@@H](O)[C@@H]2O` [estriol], for which the “effect on LDL oxidation” value in the data set on LDL was “inhibit LDL oxidation”.

On to `CC/C(=C(\c1ccccc1)c1ccc(OCCN(C)C)cc1)c1ccccc1` [tamoxifen], for which the “effect on E2's induction of nitric oxide synthase” value in data set [3] is “interferes with E2's ability to induce nitric oxide synthase”. For the same molecule, in the data set on cardiomyocytes, the “effect on E2's protection in cardiomyocytes” value is recorded as “abolishes this protective effect”.

As for `CC/C(=C(/CC)c1ccc(O)cc1)c1ccc(O)cc1` [diethylstilbestrol], the “protection against subsequent oxidative challenge” value in data set [2] is listed as “acquired significant protection against subsequent oxidative challenge”.

Take `C[C@@H]1C[C@@H]([C@H](O)CC2CC(=O)NC(=O)C2)C(=O)[C@@H](C)C1` [cyclohexamide]: the “effect on AOE induction by E2” value in data set [1] (included during the E2 pretreatment period) was “abolished”.

As to `COc1ccc2c(c1)CCC(c1ccccc1)=C2c1ccc(OCCN2CCCC2)cc1` [nafoxidine], the “protection against subsequent oxidative challenge” value in data set [2] is on record as “neither positively nor negatively influenced oxidative resistance”.
